“And” between values parts separate entries of the source, which are not always exact repeats. Equal values may be shown once.
Tested on: K24384-001-R-PDC complex spheroid growth
Experiment: Anticancer human tumor K24384-001-R-PDC patient-derived pancreatic adenocarcinoma cell line growth inhibition [AhR]
Conditions: for viability, T/C: stronger effect = lower value
How it was run: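 Complex tumor spheroids co-cultured with HUVEC and human MSC stroma; AhR antagonists tested in combination with standard-of-care and investigational agents. Top concentration at or near clinical Cmax (else 10 microM), half-log dilutions; growth expressed as percent test/control.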

[1] = curve of first compound, second compound 0.1 µM
[2] = curve of first compound, second compound 0.316 µM
[3] = curve of first compound, second compound 1 µM
[4] = curve of first compound, second compound 3.16 µM
[5] = curve of first compound, second compound 10 µM
[6] = second compound 0.1 µM, first compound 0.0316 µM
[7] = second compound 0.1 µM, first compound 0.1 µM
[8] = second compound 0.316 µM, first compound 0.0316 µM
[9] = second compound 0.316 µM, first compound 0.1 µM
[10] = second compound 1 µM, first compound 0.0316 µM
[11] = second compound 1 µM, first compound 0.1 µM
[12] = second compound 3.16 µM, first compound 0.0316 µM
[13] = second compound 3.16 µM, first compound 0.1 µM
[14] = second compound 10 µM, first compound 0.0316 µM
[15] = second compound 10 µM, first compound 0.1 µM
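Throughout, for viability, T/C: percent of DMSO vehicle-treated spheroid viability set as 100%.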

O=C(C=Cc1cccc(S(=O)(=O)Nc2ccccc2)c1)NO + CC(CO)NC(=O)c1cc(-c2ccc(Cl)cc2)nn(-c2cnn(C)c2)c1=O
IC50 [1]: 1580 nM
IC50 [2]: 2210 nM
IC50 [3]: 2000 nM
IC50 [4]: 1600 nM
IC50 [5]: 1800 nM
viability, T/C [6]: 97.1%
viability, T/C [7]: 126%
viability, T/C (second compound 0.1 µM, first compound 0.316 µM): 126%
viability, T/C (second compound 0.1 µM, first compound 1 µM): 65.4%
viability, T/C (second compound 0.1 µM, first compound 3.16 µM): 28.5%
viability, T/C (second compound 0.1 µM, first compound 10 µM): 2.04%
viability, T/C [8]: 119%
viability, T/C [9]: 130%
viability, T/C (second compound 0.316 µM, first compound 0.316 µM): 122%
viability, T/C (second compound 0.316 µM, first compound 1 µM): 96.1%
viability, T/C (second compound 0.316 µM, first compound 3.16 µM): 29.3%
viability, T/C (second compound 0.316 µM, first compound 10 µM): 1.86%
viability, T/C [10]: 123%
viability, T/C [11]: 127%
viability, T/C (second compound 1 µM, first compound 0.316 µM): 137%
viability, T/C (second compound 1 µM, first compound 1 µM): 81%
viability, T/C (second compound 1 µM, first compound 3.16 µM): 30.5%
viability, T/C (second compound 1 µM, first compound 10 µM): 1.91%
viability, T/C [12]: 107%
viability, T/C [13]: 103%
viability, T/C (second compound 3.16 µM, first compound 0.316 µM): 136%
viability, T/C (second compound 3.16 µM, first compound 1 µM): 73.3%
viability, T/C (second compound 3.16 µM, first compound 3.16 µM): 20.5%
viability, T/C (second compound 3.16 µM, first compound 10 µM): 1%
viability, T/C [14]: 107%
viability, T/C [15]: 117%
viability, T/C (second compound 10 µM, first compound 0.316 µM): 98.9%
viability, T/C (second compound 10 µM, first compound 1 µM): 73%
viability, T/C (second compound 10 µM, first compound 3.16 µM): 28.4%
viability, T/C (second compound 10 µM, first compound 10 µM): 0.81%

O=C(C=Cc1cccc(S(=O)(=O)Nc2ccccc2)c1)NO
viability, T/C (compound 0.0316 µM): 104% and 118% and 108%
viability, T/C (compound 0.1 µM): 104% and 115% and 114%
viability, T/C (compound 0.316 µM): 96.2% and 116% and 99.6%
viability, T/C (compound 1 µM): 78.5% and 87.3% and 81.8%
viability, T/C (compound 3.16 µM): 34.4% and 35.4% and 29.5%
viability, T/C (compound 10 µM): 8.12% and 8.37% and 2.97%
IC50 (curve of compound): 2100 nM and 2280 nM and 2000 nM

CC[C@@]1(O)C(=O)OCc2c1cc1n(c2=O)Cc2cc3c(CN(C)C)c(O)ccc3nc2-1 + Cc1cncc(-c2nc(NCCc3c[nH]c4ccccc34)c3ncn(C(C)C)c3n2)c1
IC50 [1]: 42.4 nM
IC50 [2]: 42.2 nM
IC50 [3]: 30.7 nM
IC50 [4]: > 100 nM
IC50 [5]: < 0.316 nM
viability, T/C (second compound 0.1 µM, first compound 0.000316 µM): 97.6%
viability, T/C (second compound 0.1 µM, first compound 0.001 µM): 92.5%
viability, T/C (second compound 0.1 µM, first compound 0.00316 µM): 81.2%
viability, T/C (second compound 0.1 µM, first compound 0.01 µM): 67.5%
viability, T/C [6]: 55.5%
viability, T/C [7]: 37.4%
viability, T/C (second compound 0.316 µM, first compound 0.000316 µM): 118%
viability, T/C (second compound 0.316 µM, first compound 0.001 µM): 100%
viability, T/C (second compound 0.316 µM, first compound 0.00316 µM): 87.9%
viability, T/C (second compound 0.316 µM, first compound 0.01 µM): 73.9%
viability, T/C [8]: 51.6%
viability, T/C [9]: 38.2%
viability, T/C (second compound 1 µM, first compound 0.000316 µM): 91.3%
viability, T/C (second compound 1 µM, first compound 0.001 µM): 111%
viability, T/C (second compound 1 µM, first compound 0.00316 µM): 95.5%
viability, T/C (second compound 1 µM, first compound 0.01 µM): 72.4%
viability, T/C [10]: 49.1%
viability, T/C [11]: 47%
viability, T/C (second compound 3.16 µM, first compound 0.000316 µM): 84.3%
viability, T/C (second compound 3.16 µM, first compound 0.001 µM): 93.8%
viability, T/C (second compound 3.16 µM, first compound 0.00316 µM): 86.4%
viability, T/C (second compound 3.16 µM, first compound 0.01 µM): 59.3%
viability, T/C [12]: 52%
viability, T/C [13]: 49.4%
viability, T/C (second compound 10 µM, first compound 0.000316 µM): 12.7%
viability, T/C (second compound 10 µM, first compound 0.001 µM): 10.1%
viability, T/C (second compound 10 µM, first compound 0.00316 µM): 14.5%
viability, T/C (second compound 10 µM, first compound 0.01 µM): 7.56%
viability, T/C [14]: 5.07%
viability, T/C [15]: 6.81%

CC(C)CC(NC(=O)C(Cc1ccccc1)NC(=O)c1cnccn1)B(O)O (configuration not stated) + Cc1ccccc1N=Nc1ccc(NC(=O)c2ccnn2C)c(C)c1
IC50 [1]: 10.7 nM
IC50 [2]: 9.9 nM
IC50 [3]: 11.2 nM
IC50 [4]: 9.78 nM
IC50 [5]: 10.5 nM
viability, T/C (second compound 0.1 µM, first compound 0.000949 µM): 106%
viability, T/C (second compound 0.1 µM, first compound 0.003 µM): 90%
viability, T/C (second compound 0.1 µM, first compound 0.00949 µM): 57.3%
viability, T/C (second compound 0.1 µM, first compound 0.03 µM): 1.13%
viability, T/C (second compound 0.1 µM, first compound 0.0949 µM): 0.15%
viability, T/C (second compound 0.1 µM, first compound 0.3 µM): 0.42%
viability, T/C (second compound 0.316 µM, first compound 0.000949 µM): 95.3%
viability, T/C (second compound 0.316 µM, first compound 0.003 µM): 76.8%
viability, T/C (second compound 0.316 µM, first compound 0.00949 µM): 54%
viability, T/C (second compound 0.316 µM, first compound 0.03 µM): 1.07%
viability, T/C (second compound 0.316 µM, first compound 0.0949 µM): 0.38%
viability, T/C (second compound 0.316 µM, first compound 0.3 µM): 0.33%
viability, T/C (second compound 1 µM, first compound 0.000949 µM): 104%
viability, T/C (second compound 1 µM, first compound 0.003 µM): 79.5%
viability, T/C (second compound 1 µM, first compound 0.00949 µM): 60.4%
viability, T/C (second compound 1 µM, first compound 0.03 µM): 1.14%
viability, T/C (second compound 1 µM, first compound 0.0949 µM): 0.44%
viability, T/C (second compound 1 µM, first compound 0.3 µM): 0.38%
viability, T/C (second compound 3.16 µM, first compound 0.000949 µM): 83.9%
viability, T/C (second compound 3.16 µM, first compound 0.003 µM): 102%
viability, T/C (second compound 3.16 µM, first compound 0.00949 µM): 51.3%
viability, T/C (second compound 3.16 µM, first compound 0.03 µM): 1.31%
viability, T/C (second compound 3.16 µM, first compound 0.0949 µM): 0.31%
viability, T/C (second compound 3.16 µM, first compound 0.3 µM): 0.48%
viability, T/C (second compound 10 µM, first compound 0.000949 µM): 97.4%
viability, T/C (second compound 10 µM, first compound 0.003 µM): 115%
viability, T/C (second compound 10 µM, first compound 0.00949 µM): 54.7%
viability, T/C (second compound 10 µM, first compound 0.03 µM): 2.19%
viability, T/C (second compound 10 µM, first compound 0.0949 µM): 1.72%
viability, T/C (second compound 10 µM, first compound 0.3 µM): 0.66%
